Measured values from ChEMBL document CHEMBL4342448, “Antcamphorols A-K, Cytotoxic and ROS Scavenging Triterpenoids from Antrodia camphorata” (J Nat Prod, 2020).

Key:
SW480 = experiment: Cytotoxicity against human SW480 cells incubated for 24 hrs by MTT assay; type: functional, cell-based; details: SW480, 24 h
U-251 = experiment: Cytotoxicity against human U251 cells incubated for 24 hrs by MTT assay; type: functional, cell-based; details: U-251, 24 h
L02 = experiment: Cytotoxicity against human L02 cells incubated for 24 hrs by MTT assay; type: cell-based; details: l02, 24 h
HUVEC [1] = experiment: Induction of ROS scavenging activity in HUVEC assessed as reduction in high glucose-induced intracellular ROS level at 20 uM incubated for 6 hrs by DCFH-DA/Hoechst 33342 staining based assay relative to control; type: functional, Homo sapiens; set-up: scale not given: the % may be the effect or the level left
MCF7 = experiment: Cytotoxicity against human MCF7 cells incubated for 24 hrs by MTT assay; type: functional, cell-based; details: MCF7, 24 h
HUVEC [2] = experiment: Induction of ROS scavenging activity in HUVEC assessed as reduction in high glucose-induced intracellular ROS level at 5 uM incubated for 6 hrs by DCFH-DA/Hoechst 33342 staining based assay relative to control; type: functional, Homo sapiens; set-up: scale not given: the % may be the effect or the level left

C=C(CC[C@@H](C)[C@H]1CC[C@H]2C3=CC[C@H]4[C@H](C)C(=O)CC[C@]4(C)C3=C[C@H](O)[C@]12C)C(C)C
IC50 (SW480): > 100 µM | IC50 (U-251): > 100 µM | Activity (L02): Non-Toxic | Activity (HUVEC [1]): 69.9% | IC50 (MCF7): > 100 µM

C=C(CC[C@@H](C)[C@H]1CC[C@H]2C3=C(C(=O)[C@H](O)[C@]12C)[C@@]1(C)CC[C@@H](O)[C@@H](C)[C@@H]1CC3=O)[C@@H](C)C(=O)O
IC50 (SW480): > 100 µM | IC50 (U-251): > 100 µM | Activity (L02): Non-Toxic | Activity (HUVEC [1]): 70.5% | IC50 (MCF7): > 100 µM

C=C(CC[C@@H](C)[C@H]1CC[C@H]2C3=CC[C@H]4[C@H](C)C(=O)CC[C@]4(C)C3=C[C@@H](O)[C@]12C)C(C)C
IC50 (SW480): > 100 µM | IC50 (U-251): > 100 µM | Activity (L02): Non-Toxic | IC50 (MCF7): > 100 µM

CC1=C2C3=C(CC[C@]2(C)[C@@H]([C@H]2CC[C@](CO)(C(C)C)OC2)C1)[C@@]1(C)CC[C@H](O)C(C)(C)[C@@H]1CC3
IC50 (SW480): > 100 µM | IC50 (U-251): > 100 µM | Activity (L02): Non-Toxic | IC50 (MCF7): > 100 µM

C=C(CC[C@@H](C)[C@H]1CC[C@H]2C3=C(C(=O)C[C@]12C)[C@@]1(C)CC[C@@H](O)[C@](C)(O)[C@@H]1C[C@@H]3O)[C@H](C)C(=O)O
IC50 (SW480): > 100 µM | IC50 (U-251): > 100 µM | Activity (L02): Non-Toxic | IC50 (MCF7): > 100 µM

C=C(CC[C@@H](C)[C@H]1CC[C@H]2C3=C(C(=O)[C@H](O)[C@]12C)[C@@]1(C)CC[C@@H](O)[C@@H](C)[C@@H]1CC3=O)[C@H](C)C(=O)O
IC50 (SW480): > 100 µM | IC50 (U-251): > 100 µM | Activity (L02): Non-Toxic | IC50 (MCF7): > 100 µM

C=C1CC[C@H](O)C/C1=C/C=C1\CCC[C@]2(C)[C@@H]([C@H](C)CCCC(C)C)CC[C@@H]12 [CHOLECALCIFEROL]
Activity (HUVEC [2]): 65.4%

C=C(CC[C@@H](C)[C@H]1CC[C@H]2C3=C(C(=O)C[C@]12C)[C@@]1(C)CC[C@@H](O)[C@](C)(O)[C@@H]1C[C@@H]3O)[C@@H](C)C(=O)O
IC50 (SW480): > 100 µM | IC50 (U-251): > 100 µM | Activity (L02): Non-Toxic | IC50 (MCF7): > 100 µM

C=C(CC[C@@H](C)[C@H]1CC[C@H]2C3=C(C(=O)C[C@]12C)[C@@]1(C)CCC(=O)[C@@H](C)[C@@H]1C[C@@H]3O)[C@H](C)C(=O)O
IC50 (SW480): > 100 µM | IC50 (U-251): > 100 µM | Activity (L02): Non-Toxic | IC50 (MCF7): > 100 µM

C/C=C(\CO)CC[C@@H](C)[C@H]1CC[C@H]2C3=C(C(=O)C[C@]12C)[C@@]1(C)CC[C@@H](O)[C@](C)(O)[C@@H]1C[C@@H]3O
IC50 (SW480): > 100 µM | IC50 (U-251): 9.2 µM | Activity (L02): Non-Toxic | IC50 (MCF7): > 100 µM

C=C(CC[C@@H](C)[C@H]1CC[C@H]2C3=CC[C@H]4[C@H](C)C(=O)CC[C@]4(C)C3=CC[C@]12C)C(C)C
IC50 (SW480): > 100 µM | IC50 (U-251): > 100 µM | Activity (L02): Non-Toxic | Activity (HUVEC [1]): 63.9% | IC50 (MCF7): > 100 µM

C=C(CC[C@@H](C)[C@H]1CC[C@H]2C3=C(C(=O)C[C@]12C)[C@@]1(C)CC[C@@H](O)[C@H](O)[C@@H]1C[C@@H]3O)[C@H](C)C(=O)O
IC50 (SW480): > 100 µM | IC50 (U-251): > 100 µM | Activity (L02): Non-Toxic | IC50 (MCF7): > 100 µM

C=C(CC[C@@H](C)[C@H]1CC[C@H]2C3=C(C(=O)C[C@]12C)[C@@]1(C)CCC(=O)[C@@H](C)[C@@H]1C[C@H]3O)C(C)C
IC50 (SW480): > 100 µM | IC50 (U-251): > 100 µM | Activity (L02): Non-Toxic | Activity (HUVEC [1]): 66.7% | IC50 (MCF7): > 100 µM

C=C(CC[C@@H](C)[C@H]1CC[C@H]2C3=CC[C@H]4[C@H](C)[C@@H](O)CC[C@]4(C)C3=C[C@@H](O)[C@]12C)C(C)C
IC50 (SW480): 16.4 µM | IC50 (U-251): 15.6 µM | Activity (L02): Non-Toxic | IC50 (MCF7): 8.1 µM

C/C=C(/CO)CC[C@@H](C)[C@H]1CC[C@H]2C3=C(C(=O)C[C@]12C)[C@@]1(C)CC[C@@H](O)[C@](C)(O)[C@@H]1C[C@@H]3O
IC50 (SW480): > 100 µM | IC50 (U-251): 10.4 µM | Activity (L02): Non-Toxic | IC50 (MCF7): > 100 µM

C=C(CC[C@@H](C)[C@H]1CC[C@H]2C3=C(C(=O)C[C@]12C)[C@@]1(C)CCC(=O)[C@@H](C)[C@@H]1C[C@@H]3O)[C@@H](C)C(=O)O
IC50 (SW480): > 100 µM | IC50 (U-251): > 100 µM | Activity (L02): Non-Toxic | IC50 (MCF7): > 100 µM

C=C(CC[C@@H](C(=O)O)[C@H]1C[C@H](O)[C@@]2(C)C3=C(CC[C@]12C)[C@@]1(C)CC[C@H](O)C(C)(C)[C@@H]1CC3)C(C)C [SULFURENIC ACID]
IC50 (SW480): > 100 µM | IC50 (U-251): > 100 µM | Activity (L02): Non-Toxic | IC50 (MCF7): > 100 µM

C=C(CC[C@@H](C(=O)O)[C@H]1CC[C@@]2(C)C3=C(CC[C@]12C)[C@@]1(C)CC[C@H](O)C(C)(C)[C@@H]1CC3)C(C)C [EBURICOIC ACID]
IC50 (SW480): > 100 µM | IC50 (U-251): > 100 µM | Activity (L02): Non-Toxic | IC50 (MCF7): > 100 µM

C=C(CC[C@@H](C(=O)O)[C@H]1C[C@H](O)[C@@]2(C)C3=CC[C@H]4C(C)(C)[C@@H](O)CC[C@]4(C)C3=CC[C@]12C)C(C)C
IC50 (SW480): > 100 µM | IC50 (U-251): > 100 µM | Activity (L02): Non-Toxic | IC50 (MCF7): > 100 µM

C=C(CC[C@@H](C(=O)O)[C@H]1CC[C@@]2(C)C3=CC[C@H]4C(C)(C)[C@@H](O)CC[C@]4(C)C3=CC[C@]12C)C(C)C [DEHYDROEBURICOIC ACID]
IC50 (SW480): > 100 µM | IC50 (U-251): > 100 µM | Activity (L02): Non-Toxic | Activity (HUVEC [1]): 69.8% | IC50 (MCF7): > 100 µM

C=C(CC[C@@H](C)[C@H]1CC[C@@]2(O)C3=C(C(=O)C[C@]12C)[C@@]1(C)CCC(=O)[C@@H](C)[C@@H]1CC3)C(C)C
IC50 (SW480): > 100 µM | IC50 (U-251): > 100 µM | Activity (L02): Non-Toxic | IC50 (MCF7): > 100 µM

Cn1nnc2c(C(N)=O)ncn2c1=O [TEMOZOLOMIDE]
IC50 (U-251): 36.4 µM

CCc1c2c(nc3ccc(OC(=O)N4CCC(N5CCCCC5)CC4)cc13)-c1cc3c(c(=O)n1C2)COC(=O)[C@]3(O)CC [IRINOTECAN]
IC50 (MCF7): 0.8 µM

C=C(CC[C@@H](C)[C@H]1CC[C@H]2C3=C(C(=O)C[C@]12C)[C@@]1(C)CC[C@@H](O)[C@H](O)[C@@H]1C[C@@H]3O)[C@@H](C)C(=O)O
IC50 (SW480): > 100 µM | IC50 (U-251): > 100 µM | Activity (L02): Non-Toxic | IC50 (MCF7): > 100 µM
